{"source": "ChEMBL document CHEMBL1157071", "about": "“Phenolic constituents of the aerial parts of Cimicifuga simplex and Cimicifuga japonica” (J Nat Prod, 2010)"}
{"target": "T1, Hyaluronidase-1 (Homo sapiens, UniProt Q12794)", "T1 sequence (Q12794 whole entry)": "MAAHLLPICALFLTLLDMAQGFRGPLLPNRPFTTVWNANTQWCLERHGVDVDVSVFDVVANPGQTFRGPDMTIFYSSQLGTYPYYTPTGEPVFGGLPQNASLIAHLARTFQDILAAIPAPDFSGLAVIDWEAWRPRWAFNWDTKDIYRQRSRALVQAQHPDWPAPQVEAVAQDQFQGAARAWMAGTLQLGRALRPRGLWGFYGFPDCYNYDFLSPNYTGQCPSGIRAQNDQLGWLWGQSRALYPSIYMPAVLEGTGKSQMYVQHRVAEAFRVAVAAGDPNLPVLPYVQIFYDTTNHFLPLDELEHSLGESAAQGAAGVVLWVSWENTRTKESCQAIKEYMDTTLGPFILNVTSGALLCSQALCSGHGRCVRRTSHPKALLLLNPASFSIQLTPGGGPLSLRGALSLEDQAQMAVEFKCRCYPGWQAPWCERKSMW", "assay": "Inhibition of hyaluronidase", "units": {"IC50": "µM"}}
{"smiles": "O=C(O)/C=C/c1ccc(O)c(O)c1", "note": "[CAFFEIC ACID]", "IC50": "> 2000"}
{"smiles": "COc1ccc(/C=C/C(=O)O[C@H](C(=O)O)[C@](O)(Cc2ccc(O)cc2)C(=O)O)cc1OC", "note": "[CIMICIFUGIC ACID L]", "IC50": 102}
{"smiles": "O=C(/C=C/c1ccc(O)c(O)c1)O[C@H](C(=O)O)[C@](O)(Cc1ccccc1)C(=O)O", "note": "[CIMICIFUGIC ACID M]", "IC50": 173}
{"smiles": "COc1cc(/C=C/C(=O)O)ccc1O", "note": "[FERULATE]", "IC50": "> 2000"}
{"smiles": "COc1ccc(/C=C\\C(=O)O[C@H](C(=O)O)[C@](O)(Cc2ccc(O)c(O)c2)C(=O)O)cc1OC", "note": "[CIMICIFUGIC ACID N]", "IC50": 120}
{"smiles": "O=C(/C=C/c1ccc(O)c(O)c1)O[C@H](Cc1ccc(O)c(O)c1)C(=O)O", "note": "[ROSMARINIC ACID]", "IC50": 545}
{"smiles": "O=C(/C=C/c1ccc(O)cc1)O[C@H](C(=O)O)[C@](O)(Cc1ccc(O)cc1)C(=O)O", "note": "[CIMICIFUGIC ACID K]", "IC50": 255}
